Results as given in PubChem BioAssay AID256 (DTP/NCI, 2004).
Several values for one entry are separate records, joined by “and”; a condition that tells them apart may be missing. Equal entries are not always repeated. Toxic doses and inconclusive results are not listed. Rule for the calls: active = survival T/C of 150% or more; inactive = T/C below 125% in these data.

Tested on: CD2F1 mice, L1210 leukemia ip, survival T/C
Assay: NCI In Vivo Anticancer Drug Screen. Data for tumor model L1210 Leukemia (intraperitoneal) in CD2F1 (CDF1) mice
Settings: higher = longer survival
Outline: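 Activity against a transplanted murine tumor was judged by comparing the compound group with a vehicle group. The outcome in the treated animals was divided by that in the controls.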

[1] = endpoint: mean survival time, dose: 50.0 mg/kg/injection, schedule: Q01DX009 (ip), vehicle: saline with Tween-80
[2] = endpoint: mean survival time, dose: 100.0 mg/kg/injection, schedule: Q01DX009 (ip), vehicle: saline with Tween-80
[3] = endpoint: mean survival time, dose: 200.0 mg/kg/injection, schedule: Q01DX009 (ip), vehicle: saline with Tween-80
[4] = endpoint: mean survival time, dose: 100.0 mg/kg/injection, schedule: Q04DX003 (ip), vehicle: saline with Tween-80
[5] = endpoint: mean survival time, dose: 200.0 mg/kg/injection, schedule: Q04DX003 (ip), vehicle: saline with Tween-80
[6] = endpoint: mean survival time, dose: 400.0 mg/kg/injection, schedule: Q04DX003 (ip), vehicle: saline with Tween-80
[7] = endpoint: mean survival time, dose: 400.0 mg/kg/injection, schedule: Q01DX009 (ip), vehicle: saline with Tween-80
[8] = endpoint: mean survival time, dose: 100.0 mg/kg/injection, schedule: Q01DX009 (ip), vehicle: other
[9] = endpoint: mean survival time, dose: 100.0 mg/kg/injection, schedule: Q01DX001 (ip), vehicle: saline with Tween-80
[10] = endpoint: mean survival time, dose: 100.0 mg/kg/injection, schedule: Q04DX002 (ip), vehicle: saline with Tween-80
[11] = endpoint: mean survival time, dose: 200.0 mg/kg/injection, schedule: Q01DX001 (ip), vehicle: saline with Tween-80
[12] = endpoint: mean survival time, dose: 200.0 mg/kg/injection, schedule: Q04DX002 (ip), vehicle: saline with Tween-80
[13] = endpoint: mean survival time, dose: 400.0 mg/kg/injection, schedule: Q01DX001 (ip), vehicle: saline with Tween-80
[14] = endpoint: mean survival time, dose: 400.0 mg/kg/injection, schedule: Q04DX002 (ip), vehicle: saline with Tween-80
[15] = endpoint: mean survival time, dose: 25.0 mg/kg/injection, schedule: Q04DX003 (ip), vehicle: saline with Tween-80
[16] = endpoint: mean survival time, dose: 50.0 mg/kg/injection, schedule: Q04DX003 (ip), vehicle: saline with Tween-80

Measured: T/C

NC(N)=NNC(=O)C(=O)O
inactive: endpoint: mean survival time, dose: 100.0 mg/kg/injection, schedule: Q01DX009 (ip), vehicle: saline 98 % of control | endpoint: mean survival time, dose: 200.0 mg/kg/injection, schedule: Q01DX009 (ip), vehicle: saline 110 % of control | endpoint: mean survival time, dose: 400.0 mg/kg/injection, schedule: Q01DX009 (ip), vehicle: saline 100 % of control

O=C(C[n+]1ccc2ccccc2c1)c1ccc(Br)cc1
inactive: endpoint: mean survival time, dose: 12.5 mg/kg/injection, schedule: Q04DX003 (ip), vehicle: saline 98 % of control | endpoint: mean survival time, dose: 25.0 mg/kg/injection, schedule: Q01DX009 (ip), vehicle: saline 98 % of control | endpoint: mean survival time, dose: 25.0 mg/kg/injection, schedule: Q04DX003 (ip), vehicle: saline 98 % of control | endpoint: mean survival time, dose: 50.0 mg/kg/injection, schedule: Q01DX009 (ip), vehicle: saline 102 % of control | endpoint: mean survival time, dose: 50.0 mg/kg/injection, schedule: Q04DX003 (ip), vehicle: saline 101 % of control | endpoint: mean survival time, dose: 100.0 mg/kg/injection, schedule: Q04DX003 (ip), vehicle: saline 97 % of control

CC(C)NCC(O)COc1ccc(O)c(O)c1 (stereo unspecified)
inactive: endpoint: median survival time, dose: 12.5 mg/kg/injection, schedule: Q01DX009 (ip), vehicle: saline 101 % of control | endpoint: median survival time, dose: 25.0 mg/kg/injection, schedule: Q01DX009 (ip), vehicle: saline 97 % of control and 101 % of control | endpoint: median survival time, dose: 50.0 mg/kg/injection, schedule: Q01DX009 (ip), vehicle: saline 98 % of control and 107 % of control | endpoint: median survival time, dose: 100.0 mg/kg/injection, schedule: Q01DX009 (ip), vehicle: saline 107 % of control and 112 % of control | endpoint: median survival time, dose: 200.0 mg/kg/injection, schedule: Q01DX009 (ip), vehicle: saline 90 % of control

N/C(=N\O)c1ccccc1
inactive: [1] 103 % of control | [2] 98 % of control | [3] 90 % of control

CC1CC=CCC1/C=N\Nc1ccc([N+](=O)[O-])cc1[N+](=O)[O-] (stereo unspecified)
inactive: [4] 98 % of control | [5] 94 % of control | [6] 100 % of control

O=C1OC(c2ccccc2)c2ccccc21 (stereo unspecified)
inactive: [2] 95 % of control | [3] 100 % of control | [7] 92 % of control

COC(=O)C1=NNC(C(=O)OC)=NN1
inactive: endpoint: mean survival time, dose: 12.5 mg/kg/injection, schedule: Q01DX009 (ip), vehicle: water 95 % of control | endpoint: mean survival time, dose: 25.0 mg/kg/injection, schedule: Q01DX009 (ip), vehicle: water 95 % of control | endpoint: mean survival time, dose: 50.0 mg/kg/injection, schedule: Q01DX009 (ip), vehicle: water 98 % of control | endpoint: mean survival time, dose: 100.0 mg/kg/injection, schedule: Q01DX009 (ip), vehicle: water 105 % of control | endpoint: mean survival time, dose: 200.0 mg/kg/injection, schedule: Q01DX009 (ip), vehicle: water 90 % of control

COc1cc(Cl)cc(OC)c1
inactive: [2] 100 % of control | [3] 104 % of control | [7] 103 % of control

CCCCCOS(=O)(=O)c1ccc(Cl)c([N+](=O)[O-])c1
inactive: [4] 98 % of control

Nc1nc2c(c(=O)[nH]1)N=C(CCc1ccccc1)CO2
inactive: endpoint: mean survival time, dose: 25.0 mg/kg/injection, schedule: Q01DX009 (ip), vehicle: other 91 % of control | endpoint: mean survival time, dose: 50.0 mg/kg/injection, schedule: Q01DX009 (ip), vehicle: other 93 % of control | [8] 87 % of control | endpoint: mean survival time, dose: 200.0 mg/kg/injection, schedule: Q01DX009 (ip), vehicle: other 87 % of control

CCOC(=O)c1ccc(NC(=S)NC(=O)c2cccc(Br)c2)cc1
inactive: [9] 101 % of control and 112 % of control | [2] 92 % of control and 98 % of control | [10] 93 % of control | [4] 96 % of control | [11] 97 % of control and 101 % of control | [3] 94 % of control and 95 % of control | [12] 95 % of control | [5] 98 % of control | [13] 101 % of control | [7] 97 % of control and 106 % of control | [14] 96 % of control | [6] 93 % of control

CC[P+](C)(CC)c1cccc(OC(=O)NC)c1
inactive: endpoint: mean survival time, dose: 0.05 mg/kg/injection, schedule: Q01DX001 (ip), vehicle: saline 96 % of control | endpoint: mean survival time, dose: 0.1 mg/kg/injection, schedule: Q01DX001 (ip), vehicle: saline 102 % of control | endpoint: mean survival time, dose: 0.2 mg/kg/injection, schedule: Q01DX001 (ip), vehicle: saline 104 % of control

CSc1cc(=O)n(C2OC(COCc3ccccc3)C(OCc3ccccc3)C2OCc2ccccc2)c(=O)[nH]1 (stereo unspecified)
inactive: endpoint: mean survival time, dose: 100.0 mg/kg/injection, schedule: Q01DX005 (ip), vehicle: saline 111 % of control | endpoint: mean survival time, dose: 200.0 mg/kg/injection, schedule: Q01DX005 (ip), vehicle: saline 107 % of control

CC(CCOP(N)(=O)N(CCCl)CCCl)OCc1ccccc1 (stereo unspecified)
inactive: endpoint: mean survival time, dose: 25.0 mg/kg/injection, schedule: Q01DX001 (ip), vehicle: other 98 % of control | endpoint: mean survival time, dose: 50.0 mg/kg/injection, schedule: Q01DX001 (ip), vehicle: other 101 % of control | endpoint: mean survival time, dose: 100.0 mg/kg/injection, schedule: Q01DX001 (ip), vehicle: other 106 % of control | endpoint: mean survival time, dose: 200.0 mg/kg/injection, schedule: Q01DX001 (ip), vehicle: other 115 % of control | endpoint: mean survival time, dose: 500.0 mg/kg/injection, schedule: Q01DX001 (ip), vehicle: other 118 % of control

N#CC1C(=O)NC(O)(c2ccccc2)C1c1ccccc1 (stereo unspecified)
inactive: [15] 105 % of control | [16] 105 % of control | [4] 97 % of control and 105 % of control

CCOC(=O)c1ccc(NC(=O)NC(Cc2ccccc2)c2ccccc2)cc1 (stereo unspecified)
inactive: [15] 111 % of control | endpoint: mean survival time, dose: 50.0 mg/kg/injection, schedule: Q01DX001 (ip), vehicle: saline with Tween-80 96 % of control | [1] 87 % of control and 91 % of control | [16] 104 % of control | [9] 96 % of control | [2] 87 % of control | [10] 91 % of control | [4] 89 % of control and 106 % of control | [11] 94 % of control | [3] 87 % of control and 90 % of control | [12] 87 % of control and 88 % of control | [5] 101 % of control | [13] 94 % of control | [14] 86 % of control

COc1ccc(OC)c(C(=O)C=C(C(F)(F)F)C(F)(F)F)c1
inactive: [8] 113 % of control

CC(C)(O)C1OCC(C2CCC3(C)C4=CCC5C(C)(C)C(O)CCC5(C)C4CCC23C)CC1O (stereo unspecified)
inactive: endpoint: mean survival time, dose: 2.5 mg/kg/injection, schedule: Q01DX009 (ip), vehicle: Klucel (hydroxypropylcellulose) (HPC) 94 % of control | endpoint: mean survival time, dose: 5.0 mg/kg/injection, schedule: Q01DX009 (ip), vehicle: Klucel (hydroxypropylcellulose) (HPC) 103 % of control | endpoint: mean survival time, dose: 10.0 mg/kg/injection, schedule: Q01DX009 (ip), vehicle: Klucel (hydroxypropylcellulose) (HPC) 88 % of control

COC(=O)CCS(=O)(=O)CCC(=O)OC
inactive: endpoint: mean survival time, dose: 100.0 mg/kg/injection, schedule: Q04DX003 (ip), vehicle: Klucel (hydroxypropylcellulose) (HPC) 103 % of control | endpoint: mean survival time, dose: 200.0 mg/kg/injection, schedule: Q04DX003 (ip), vehicle: Klucel (hydroxypropylcellulose) (HPC) 100 % of control | endpoint: mean survival time, dose: 400.0 mg/kg/injection, schedule: Q04DX003 (ip), vehicle: Klucel (hydroxypropylcellulose) (HPC) 103 % of control

C[SeH]C.C[SeH]C.O.O=S(=O)(O)O.[Pt]
inactive: endpoint: mean survival time, dose: 12.5 mg/kg/injection, schedule: Q04DX003 (ip), vehicle: other 89 % of control | endpoint: mean survival time, dose: 25.0 mg/kg/injection, schedule: Q04DX003 (ip), vehicle: other 101 % of control | endpoint: mean survival time, dose: 50.0 mg/kg/injection, schedule: Q04DX003 (ip), vehicle: other 103 % of control | endpoint: mean survival time, dose: 100.0 mg/kg/injection, schedule: Q04DX003 (ip), vehicle: other 107 % of control
